Assays:
Format in all cases: cell-based
[1] = target: T1, mouse SGLT homolog (Mus musculus, UniProt Q8VDT1); experiment: α-methyl glucose uptake in COS7 cell expressing the mouse SGLT homolog; conditions: COS7 cells, NaCl + 100 μM or 1 mM phlorizin, one-hour incubation, FIG. 6
T1 construct: expressed in transfected cells; host or cells: COS7 cells, transient, FuGENE6
T1 sequence (Q8VDT1 8-685): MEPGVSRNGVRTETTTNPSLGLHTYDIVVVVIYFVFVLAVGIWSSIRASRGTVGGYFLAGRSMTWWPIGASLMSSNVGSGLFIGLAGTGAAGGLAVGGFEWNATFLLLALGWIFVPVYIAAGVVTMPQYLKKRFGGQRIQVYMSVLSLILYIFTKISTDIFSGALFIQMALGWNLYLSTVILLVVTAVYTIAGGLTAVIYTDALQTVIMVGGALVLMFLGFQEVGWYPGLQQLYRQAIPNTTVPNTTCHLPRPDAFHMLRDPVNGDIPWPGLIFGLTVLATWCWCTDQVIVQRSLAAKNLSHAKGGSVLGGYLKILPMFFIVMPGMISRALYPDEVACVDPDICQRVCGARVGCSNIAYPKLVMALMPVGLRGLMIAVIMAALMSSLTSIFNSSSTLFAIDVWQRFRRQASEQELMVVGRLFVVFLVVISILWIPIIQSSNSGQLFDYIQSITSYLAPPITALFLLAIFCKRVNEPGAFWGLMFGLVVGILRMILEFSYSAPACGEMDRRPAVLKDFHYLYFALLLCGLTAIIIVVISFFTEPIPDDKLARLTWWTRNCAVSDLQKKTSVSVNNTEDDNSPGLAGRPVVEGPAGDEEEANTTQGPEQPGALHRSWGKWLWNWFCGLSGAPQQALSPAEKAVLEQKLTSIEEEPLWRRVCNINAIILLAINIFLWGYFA
Procedure: (§1) The cDNA of human SGLT1 (NCBI Accession NM_000343) was amplified by PCR from Clontech MTC panel kidney cDNA library, and subcloned into the expression vector for animal cells, pME18S between EcoRI and SpeI sites to prepare pME18S-hSGLT1. COS7 cells (5×10^5 cells) were transfected with each 1 μg of plasmids pME18S, pME18S-hSGLT1, and pME18S-mouse-SGLT-homolog according to the FuGENE6 method (Roche).
(§2) Experimental incorporation of α-methyl glucose into the COS7 cell having pMEI 8S, the COS7 cell expressing hSGLT1, and the COS7 cell expressing the mouse SGLT homolog was carried out according to the method described in Am. J. Physiol. 270:G833-G843 (1996) and J. Clin. Invest. 93:397-404,1994. These cells were plated on a 96-well plate in a cell density of 3×10^4 cells/well and in a volume of 100 μl of DMEM containing 10% FBS per well, and cultured overnight at 37° C. The cells were washed 3 times with 150 μl of a buffer solution (125 mM KCl, 1.2 mM KH2PO4, 2.5 mM CaCl2, 1.2 mM MgSO4, 4 mM Glutamine, 10 mM HEPES (pH 7.2), 0.1 mg/ml BSA), and cultured for an hour in the same buffer solution to remove the rest of glucose. […] The radioactivity of ^14C incorporated into the cells was counted with 100 μl of a liquid scintillator added per well.

[2] = tested on: rat SGLT homolog; experiment: α-methyl glucose uptake in COS7 cell expressing the rat SGLT homolog; conditions: COS7 cells, NaCl + 100 μM or 1 mM phlorizin, one-hour incubation, FIG. 9
Procedure: as §1, with “pME18S-rat-SGLT-homolog” for “pME18S-mouse-SGLT-homolog”
as §2, with “pME18S,” for “pMEI 8S,”, “rat” for “mouse”, “93:397-404, 1994.” for “93:397-404,1994.”

[3] = target: T2, human SGLT homolog (Homo sapiens, UniProt Q2M3M2, I269M); experiment: α-methyl glucose uptake in CHO cell expressing the SGLT homolog; conditions: CHO cells, NaCl + 10 μM or 100 μM Phlorizin, one-hour incubation, FIG. 3
T2 construct: expressed in transfected cells
T2 sequence (Q2M3M2 8-681 I269M): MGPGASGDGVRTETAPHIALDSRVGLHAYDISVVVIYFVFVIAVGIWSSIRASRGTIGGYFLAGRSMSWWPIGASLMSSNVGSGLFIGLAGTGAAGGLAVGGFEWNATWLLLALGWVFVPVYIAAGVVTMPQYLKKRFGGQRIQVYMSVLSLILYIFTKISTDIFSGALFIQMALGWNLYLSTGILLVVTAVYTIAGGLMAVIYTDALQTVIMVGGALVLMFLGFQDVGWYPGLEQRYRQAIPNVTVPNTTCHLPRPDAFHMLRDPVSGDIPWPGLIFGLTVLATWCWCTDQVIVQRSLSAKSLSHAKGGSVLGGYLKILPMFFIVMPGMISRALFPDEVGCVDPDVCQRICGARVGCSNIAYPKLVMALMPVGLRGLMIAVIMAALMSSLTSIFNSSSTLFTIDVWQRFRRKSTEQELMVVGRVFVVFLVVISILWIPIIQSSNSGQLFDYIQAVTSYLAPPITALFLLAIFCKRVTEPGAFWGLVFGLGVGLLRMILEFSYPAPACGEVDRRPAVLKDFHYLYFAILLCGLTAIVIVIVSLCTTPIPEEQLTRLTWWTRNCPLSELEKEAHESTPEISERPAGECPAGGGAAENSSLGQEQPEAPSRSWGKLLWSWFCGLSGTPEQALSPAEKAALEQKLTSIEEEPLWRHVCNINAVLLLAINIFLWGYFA
Procedure: Each cDNA of human SGLT1 (NCBI Accession NM_000343) and SGLT2 (NCBI Accession NM_003041) was amplified by PCR from Clontech MTC panel kidney cDNA library, and subcloned into the expression vector for animal cells, pME18S between EcoRI and SpeI sites to prepare pME18S-hSGLT1 and pME18S-hSGLT2. CHO cells (1×10^6 cells) were co-transfected with each 5 μg of plasmids pME18S, pMEI 8S-SGLT homolog, pMEI 8S-hSGLT1, and pME18S-hSGLT2, and the expression vector for animal cells, pRSVneo […] according to the LipofectAMINE PLUS method (GIBCOBRL). These cells were cultured in DMEM containing G418 (500 μg/ml) and 10% FBS for 2 weeks to select the drug-resistant clones.
Total RNAs were extracted from respective G418-resistant CHO cells using RNAeasy Mini Kit (Quiagen). The expression of the SGLT homolog, hSGLT1 and hSGLT2 was quantified using TaqMan Gold RT-PCR Kit (PE Biosystems) according to the TaqMan PCR method to select CHO cells expressing each gene.
Experimental incorporation of α-methyl glucose into the CHO cell expressing the SGLT homolog, the CHO cell expressing hSGLT1, the CHO cell expressing hSGLT2, and the CHO cell having pME18S was carried out according to the method described in Am. J. Physiol. 270:G833-G843 (1996) and J. Clin. Invest. 93:397-404, 1994. […] The radioactivity of ^14C incorporated into the cells was counted with 100 μl of a liquid scintillator added per well.

[4] = target: T2, human SGLT homolog; experiment: α-methyl glucose uptake in COS7 cells carrying pME18S-human-SGLT-homolog (pTB2193); conditions: NaCl + 100 μM or 1 mM phlorizin, one-hour incubation, FIG. 12
Procedure: Each 1 μg of the expression vectors for animal cells: pME18S, pME18S-hSGLT2, pME18S-human-SGLT-homolog (pTB2193), pME18S-human-SGLT-homolog-SNP-C1 (pTB2251), pME18S-human-SGLT-homolog-SNP-C2 (pTB2252) and pME18S-human-SGLT-homolog-SNP-C3 (pTB2253), and 3 μl of FuGENE 6 (Roche) were added to Opti-MEM (Gibco-BRL) 100 μl for 15 min at room temperature. These mixtures were then added to COS7 cells (1×10^6 cells/1 ml of DMEM containing 10% FBS/well in 6-well plate) so that each gene was introduced into the cells.
Experimental incorporation of α-methyl glucose into the COS7 cells carrying pME 18S, pME18S-hSGLT2, pME 18S-human-SGLT-homolog (pTB2193), pME18S-human-SGLT-homolog-SNP-C 1 (pTB2251), pME18S-human-SGLT-homolog-SNP-C2 (pTB2252), and pME18S-human-SGLT-homolog-SNP-C3 (pTB2253) was carried out according to the method described in Am. J. Physiol. 270:G833-G843 (1996) and J. Clin. Invest. 93:397-404 (1994).
These gene-transfected cells were cultured for a day, and then plated on a 96-well plate in a cell density of 3×10^4 cells/well and in a volume of 100 μl of DMEM containing 10% FBS per well, and further cultured overnight at 37° C. […] The radioactivity of ^14C incorporated into the cells was counted with 100 μl of a liquid scintillator added per well.

O=C(CCc1ccc(O)cc1)c1c(O)cc(O)cc1O[C@@H]1O[C@H](CO)[C@@H](O)[C@H](O)[C@H]1O [phlorizin]
inhibited: inhibition of Na+-dependent α-methyl glucose uptake activity [1] | inhibition of Na+-dependent α-methyl glucose uptake activity [2] | inhibition of Na-dependent α-methyl glucose uptake activity [3] | inhibition of NaCl-dependent glucose uptake activity [4]

— patent publication US7247705B2, “Proteins having glucose transporter activity” (Takeda Pharmaceutical Company Limited, priority 2000, dated 2007)
